Tested on: IL-6
Assay: Retinol (Inumax)-induced IL-6 production in primary adult human dermal fibroblast cells
Type: cell-based
Conditions: lower effective retinoid concentrations (lower than 0.5% by weight of the composition)
Protocol: Primary adult human dermal fibroblast cells were incubated with 0.1% microencapsulated retinol commercially available and sold y Evonik under the trade name Inumax. Inumax was diluted in cell culture media to a final concentration of 0.1% and the dilution was used as an inflammatory reaction control. The anti-inflammatory activity of Bisabolol and Centella asiatica was compared in comparison to the control by incubating adult human dermal fibroblast cells with 0.1% inumax in supernatant in the presence of Bisabolol and Centella asiatica, both in combination with dipeptide, at a range of concentrations. Cells were incubated fro 24 hours at 37 C and 5% CO2, in the presence of the actives. At the end of incubation time the supernatant was removed for IL-6 testing. An MTT (3-(4,5-dimethylthiazol-2-yl)-2,5-diphenyltetrazolium bromide) assay was performed on the treated cells to confirm cell metabolic activity following treatment. The levels of IL-6 in supernatant were determined using the Invitrogen IL-6 assay.

α-bisabolol
reducing the retinol induced IL-6 production and consequential skin sensitivity: beneficial in reducing the retinol induced IL-6 production
